This passage reports Ki results from patent US8957049B2, “Inhibitors of fatty acid amide hydrolase” (Infinity Pharmaceuticals, Inc., priority 2008, dated 2015).

Each structure is given as a SMILES string. Read-outs that look alike come from different tables or passages of the source.

In the experiment the target is T1, human FAAH (Homo sapiens, UniProt O00519).
T1 construct: host or cells: COS-7 cells, transient transfection (FuGENE 6); 13,000 g membrane fraction solubilised in 1% Triton X-100
T1 sequence (O00519 1-579): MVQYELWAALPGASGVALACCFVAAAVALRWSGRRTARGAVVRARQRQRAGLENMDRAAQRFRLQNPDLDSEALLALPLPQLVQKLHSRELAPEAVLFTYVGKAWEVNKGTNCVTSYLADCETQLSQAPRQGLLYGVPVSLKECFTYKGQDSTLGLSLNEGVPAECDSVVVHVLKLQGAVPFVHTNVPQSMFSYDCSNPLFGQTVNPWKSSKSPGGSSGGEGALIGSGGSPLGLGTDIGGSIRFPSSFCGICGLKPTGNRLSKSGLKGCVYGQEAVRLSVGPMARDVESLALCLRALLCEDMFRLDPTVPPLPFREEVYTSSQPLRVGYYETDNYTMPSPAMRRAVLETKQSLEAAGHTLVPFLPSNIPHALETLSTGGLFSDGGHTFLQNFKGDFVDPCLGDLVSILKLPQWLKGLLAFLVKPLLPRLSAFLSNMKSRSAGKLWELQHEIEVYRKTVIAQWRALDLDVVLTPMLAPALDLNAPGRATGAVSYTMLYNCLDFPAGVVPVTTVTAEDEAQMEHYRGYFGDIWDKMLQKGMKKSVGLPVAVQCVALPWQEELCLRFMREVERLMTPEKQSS
As to the kind of experiment: Human FAAH biochemical inhibition assay (AMC arachidonoyl amide fluorescence). As for the experimental part:
Exemplary compounds are set forth in the Examples provided below. Compounds were assayed as inhibitors of human FAAH using the method described in detail in Example 286.
The following assays may be used to determine the inhibition of FAAH by the compounds of the present invention: (1) a fluorescence-based assay for fatty acid amide hydrolase compatible with high-throughput screening as described in Manjunath et al., Analytical Biochemistry (2005) 343:143-151; and (2) a high-throughput screening for the discovery of inhibitors of fatty acid amide hydrolase using a microsome-based fluorescent assay. Wang et al., Biomolecular Screening (2006) 1-9.
COS-7 cells were split the day before, 1:5 into 150 mm×25 mm cell culture dishes (Corning Inc., Cat. No. 430599). Transient transfection took place at 30-40% confluency according to FuGENE 6 Transfection Reagent (Roche, Cat. No. 11814 443 001).
The FuGENE transfection 6 reagent (45 uL) was added to 1410 μL of media (DMEM, serum free without pen/strep) in a 15 mL conical tube and incubated at room temp for 5 minutes, followed by the addition of FAAH plasmid DNA (15 μg) (OriGene Cat. No. TC119221, Genbank Accession No. NM_001441.1, 0.67 ug/uL) and a further incubation of 15 minutes at room temperature. The resulting solution was added into one dish of 30-40% confluent COS-7 cells in a drop-wise manner. The COS-7 cell dish was subsequently incubated for 48 hours. The cells are then harvested.
Media was aspirated from the dishes and the cells rinsed with 10 mL PBS. The PBS was removed and 3 mL of PBS added to the dish. The dish was scraped to resuspend the cells, and the subsequent cell suspension collected into a 15 mL conical tube. The cells were pelleted by centrifugation at 1200 rpm for 5 minutes in a bench top centrifuge. PBS was removed and the cell pellet snap frozen in liquid nitrogen and stored at −80° C.
COS-7 Cells—FAAH Purification: • (1) Fractionation: Frozen cell pellets from transient transfections were thawed on ice and resuspended in 12.5 mM Hepes pH 8.0, 100 mM NaCl, 1 mM EDTA (10 mL/0.2 g cell pellet). The pellets were dounce homogenized and then sonicated to produce cell extract. The cell extract was subsequently centrifuged at 1000 g to remove cellular debris. The pellet was discarded and the supernatant centrifuged at 13,000 g for 20 minutes. The pellet contained membrane bound FAAH. The supernatant was discarded and the pellet resolubilized. • (2) Re-solubilization: The fraction of interest, (13,000 g, membrane fraction) was re-suspended in 2.3 mL re-suspension buffer (20 mM Hepes pH 7.8, 10% v/v Glycerol, 1 mM EDTA, 1% Triton X-100) and the sample incubated on ice for 1 hour and then centrifuged to remove any particulate matter. The supernatant containing solubilized human FAAH was aliquoted and snap frozen in liquid nitrogen and stored at −80° C. until use. • (3) Characterization: Protein Concentration determined by Bradford assay. • SDS gel and Western blot to confirm presence of FAAH • FAAH activity assay • Km determination—96-well assay • Linear dependence—96-well assay • Standard compound Ki determination—384-well assay
Rat FAAH biochemical assays were carried out in a 96 well flat bottom black non-treated polystyrene plates (Corning Costar Catalogue #3915). FAAH reaction buffer: 50 mM Hepes (pH 7.5), 1 mM EDTA, 0.2% Triton X-100. FAAH substrate—AMC Arachidonoyl Amide (Cayman Chemicals Company, Catalog #10005098). The reaction was read in an Envision microtiter plate reader [Excitation filter 355 nm (40 nm bandpass); Emmision filter 460 nm (25 nm bandpass)]. The raw fluorescence was plotted on the y axis and the inhibitor concentration on the x axis to give a dose response inhibition curve. The data was fitted to a single site competitive inhibition equation, fixing the Km for the rat and human enzyme to 12 μM and 9 μM respectively. […]

Setting [1] is: class given in each Example, read-out: Activity (Ki, inhibition of human FAAH).
The mark [2] stands for this setting: Table A, read-out: Activity (Ki) of other boronic acids tested, Table A.

The Ki is a measure of affinity in units of concentration, obtained from inhibition or displacement. Turning to `CC(C)CN1CCC(Cc2nc3ccc(B(O)O)cc3o2)CC1` [Compound 304], the inhibition constant (Ki) under setting [1] is over 1000 nM.

For `NCCc1nnc(-c2ccc(B(O)O)cc2)o1` [Compound 84], the Ki under setting [1] was over 1000 nM.

Take `OB(O)c1ccc(-c2nnc(Cc3ccccc3)o2)s1` [Compound 55]: under setting [1], the Ki was 10 to 100 nM.

Take `CN(c1ccccc1)c1ccc2cc(B(O)O)ccc2n1` [Compound 205]: under setting [1], the Ki lay within 10 to 100 nM.

Take `OB(O)c1csc(-c2nnc(Cc3ccccc3)o2)c1` [Compound 60]: under setting [1], the Ki was at most 10 nM.

As to `COC(=O)/C=C/c1ccsc1B(O)O` [Compound 101], under setting [1], the Ki was in the range of 100 to 1000 nM.

As for `CCCCCc1nc2ccc(B(O)O)cc2o1` [Compound 245], the Ki under setting [1] is at most 10 nM.

As for `OB(O)c1ccc(-n2nncc2-c2ccccc2)cc1` [Compound 144], under setting [1], the Ki lay in the range of 10 to 100 nM.

Take `OB(O)c1ccc(-c2ccc(F)cc2)nc1`: the Ki under setting [2] lay within 10 to 100 nM.

Turning to `CCCCCc1nnc(-c2cc(B(O)O)cs2)o1` [Compound 27], the Ki under setting [1] was at most 10 nM.

Consider `O=C(CCc1nnc(-c2ccc(B(O)O)cc2)o1)N1CCCCC1` [Compound 239], for which the Ki under setting [1] was in the range of 10 to 100 nM.

In the case of `OB(O)c1ccc(-c2nnc(Cc3ccccc3)o2)cc1F` [Compound 69], under setting [1], the Ki was in the range of 10 to 100 nM.

For the compound `OB(O)c1ccc([C@H]2OC[C@H](c3ccccc3)O2)cc1` [Compound 179], the Ki under setting [1] is at most 10 nM.

As for `OB(O)c1ccc(-c2nnc(-c3ccccn3)o2)cc1` [Compound 65], the Ki under setting [1] was in the range of 10 to 100 nM.

With `OB(O)c1ccc(-c2nnc(-c3ccccc3)o2)cc1` [Compound 71], the Ki under setting [1] was at most 10 nM.

Turning to `OB(O)c1ccc2nc(CCc3ccccc3)sc2c1` [Compound 278], the Ki under setting [1] was at most 10 nM.

For `Cc1nnc(/C=C/c2ccccc2B(O)O)o1` [Compound 28], the Ki under setting [1] lay in the range of 100 to 1000 nM.

`OB(O)c1csc(-c2nnc(CCc3ccccc3)o2)c1` [Compound 58]: the inhibitory constant (Ki) under setting [1] was at most 10 nM.

As for `OB(O)c1ccc(-c2nnc(-c3cccc4c3OCO4)o2)cc1` [Compound 53], the inhibitory constant (Ki) under setting [1] was at most 10 nM.

Consider `OB(O)c1ccc(-c2cccc3[nH]ccc23)cc1F` [Compound 230], for which the Ki under setting [1] lay in the range of 10 to 100 nM.

On to `O=C(CCc1ccc(B(O)O)cc1)NCc1ccccc1` [Compound 324], for which the Ki under setting [1] was 100 to 1000 nM.

`OB(O)c1ccc(COc2ccc(B(O)O)cc2)cc1` [Compound 325]: the Ki under setting [1] was in the range of 100 to 1000 nM.

With `CCCCCC1CC(c2ccc(B(O)O)cc2)=NO1` (stereo not drawn) [Compound 161], under setting [1], the Ki was at most 10 nM.

For the compound `OB(O)c1ccc(-c2cn(Cc3ccc(C(F)(F)F)cc3)nn2)cc1` [Compound 127], the inhibitory constant (Ki) under setting [1] was 100 to 1000 nM.

Turning to `OB(O)c1ccc(COc2cccc(B(O)O)c2)cc1` [Compound 326], the Ki under setting [1] was at most 10 nM.

Take `CC(C)(C)OC(=O)Nc1cccc(NC(=O)/C=C/c2ccccc2B(O)O)c1` [Compound 113]: under setting [1], the Ki was over 1000 nM.

Turning to `COc1ccccc1Oc1ccc2cc(B(O)O)ccc2n1` [Compound 200], under setting [1], the Ki was at most 10 nM.

On to `O=C(/C=C/c1ccccc1B(O)O)NCc1ccccc1` [Compound 112], for which the Ki under setting [1] lay in the range of 100 to 1000 nM.

As to `CCCc1nnc(-c2ccc(F)cc2B(O)O)o1` [Compound 22], the Ki under setting [1] is over 1000 nM.

In the case of `CC(C)(C)OC(=O)N1CCN(C(=O)CCB(O)O)CC1` [Compound 323], the Ki under setting [1] is 100 to 1000 nM.

For `CN(C)c1nnc(-c2ccccc2B(O)O)o1` [Compound 282], under setting [1], the Ki is over 1000 nM.

For the compound `OB(O)c1ccc(-c2nnc(CCC3CCCC3)o2)cc1` [Compound 33], the Ki under setting [1] was at most 10 nM.

Take `CCCCc1nnc(-c2ccc(B(O)O)cc2)o1` [Compound 42]: the Ki under setting [1] is at most 10 nM.

As to `OB(O)c1ccc(-c2nnc(-c3ccccc3)o2)c(Cl)c1` [Compound 68], the Ki under setting [1] is at most 10 nM.

`OB(O)c1ccc2nc(Oc3cccc(Cl)c3)ccc2c1` [Compound 197]: the Ki under setting [1] was at most 10 nM.

As to `Cc1nc(CC(=O)N/N=C/c2ccccc2B(O)O)cs1` [Compound 123], the Ki under setting [1] was over 1000 nM.

`COCCCc1cn(-c2ccccc2)nc1-c1ccc(B(O)O)cc1` [Compound 92]: the Ki under setting [1] is over 1000 nM.

As to `O=Cc1cc(OCCc2ccccc2)ccc1B(O)O` [Compound 98], under setting [1], the Ki is at most 10 nM.

For `OB(O)c1ccc(-n2nncc2-c2ccccc2)cc1F` [Compound 142], the Ki under setting [1] was 100 to 1000 nM.

Take `COC(=O)Nc1ccc(B(O)O)cc1`: the Ki under setting [2] is over 1000 nM.

Consider `OB(O)c1ccc([C@H]2OC[C@H](c3ccccc3)CO2)cc1F` [Compound 173], for which the inhibition constant Ki under setting [1] was at most 10 nM.

In the case of `O=C(CCc1ccccc1)N1CCC(Cc2nc3ccc(B(O)O)cc3o2)CC1` [Compound 306], the inhibition constant Ki under setting [1] is at most 10 nM.

As to `CCC(C)CCc1nnc(-c2ccc(B(O)O)cc2)o1` (stereo not drawn) [Compound 32], under setting [1], the Ki was at most 10 nM.

In the case of `OB(O)c1ccc(-c2cc(-c3ccccc3)on2)cc1` [Compound 160], the Ki under setting [1] was at most 10 nM.

As for `CCCCC(C)c1nnc(-c2ccc(B(O)O)cc2)o1` (stereo not drawn) [Compound 34], the Ki under setting [1] is at most 10 nM.

As for `OB(O)c1ccc2nc(-c3ccccc3)c(Br)n2c1` [Compound 317], under setting [1], the Ki was at most 10 nM.

For the compound `CC(C)(C)OC(=O)NCC(=O)N/N=C/c1cc(OCc2ccccc2)ccc1B(O)O` [Compound 117], under setting [1], the inhibitory constant (Ki) lay within 10 to 100 nM.

Regarding `O=C(CCCC1CCN(Cc2ccc(B(O)O)cc2)CC1)c1ncco1` [Compound 329], under setting [1], the Ki fell in the range of 100 to 1000 nM.

Turning to `OB(O)c1ccc(-c2cccc(-c3ccccc3)c2)cc1` [Compound 219], the Ki under setting [1] lay in the range of 10 to 100 nM.

Take `COC(=O)CCc1cc(OCCc2ccccc2)ccc1B(O)O` [Compound 102]: under setting [1], the Ki fell in the range of 10 to 100 nM.

Consider `CCCCCc1nnc(-c2ccc(B(O)O)cn2)o1` [Compound 9], for which, under setting [1], the Ki was at most 10 nM.

For the compound `O=C(N/N=C/c1cc(OCc2ccccc2)ccc1B(O)O)c1cccnc1` [Compound 125], the Ki under setting [1] was in the range of 10 to 100 nM.

With `OB(O)c1ccc2nc(Oc3ccccc3O)ccc2c1` [Compound 199], the Ki under setting [1] is at most 10 nM.

In the case of `OB(O)c1ccc(-c2cc(-c3cccnc3)on2)cc1` [Compound 166], under setting [1], the Ki is at most 10 nM.

In the case of `OB(O)c1ccc2nc(OC3CCCC3)ccc2c1` [Compound 190], under setting [1], the Ki was at most 10 nM.

As for `Cc1cc2cc(B(O)O)ccc2nc1Oc1ccccc1` [Compound 210], under setting [1], the Ki was at most 10 nM.

Regarding `O=C1CC(c2nc3ccc(B(O)O)cc3o2)CN1Cc1ccccc1` (stereo not drawn) [Compound 249], under setting [1], the Ki fell in the range of 10 to 100 nM.

As to `OB1ON=Cc2cc(OCCc3ccccc3)ccc21` [Compound 104], the Ki under setting [1] lay in the range of 10 to 100 nM.

For the compound `OB(O)c1cccc(-c2nnc(-c3ccccc3)o2)c1` [Compound 63], the Ki under setting [1] was 100 to 1000 nM.

As to `CCCc1nc2ccc(B(O)O)cc2o1` [Compound 244], the Ki under setting [1] is at most 10 nM.
